{"source": "paper PMC9133015", "about": "(Nature Communications, 2022)", "key": {"p-4E-BP1 (Thr37/46)": {"system": "p-4E-BP1 (Thr37/46)", "test": "Western blotting analysis of indicated proteins in PCa cells", "format": "cell-based, human", "conditions": "48 h treatment"}, "DYRK2 protein": {"target": "T1, DYRK2 protein (Homo sapiens, UniProt Q92630)", "T1 construct": "6xHis (N, cleaved yes); TEV protease cleavage site (N, cleaved yes); made in house; host or cells: E. coli BL21 (DE3)", "T1 sequence (Q92630 72-479 isoform Q92630-2)": "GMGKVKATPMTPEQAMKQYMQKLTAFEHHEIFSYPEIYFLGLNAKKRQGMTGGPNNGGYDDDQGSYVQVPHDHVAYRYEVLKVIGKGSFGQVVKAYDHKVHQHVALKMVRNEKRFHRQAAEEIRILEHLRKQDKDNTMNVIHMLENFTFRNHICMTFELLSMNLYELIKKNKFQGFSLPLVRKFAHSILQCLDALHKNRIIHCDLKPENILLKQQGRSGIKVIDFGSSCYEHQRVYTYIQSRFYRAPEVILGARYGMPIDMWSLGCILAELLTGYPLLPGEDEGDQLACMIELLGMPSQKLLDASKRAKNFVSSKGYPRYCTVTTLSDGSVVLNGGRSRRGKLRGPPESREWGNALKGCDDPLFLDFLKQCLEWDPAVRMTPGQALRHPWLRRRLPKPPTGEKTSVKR", "test": "Microscale thermophoresis binding assay", "conditions": "for Fnorm: triplicates"}, "[1]": {"target": "T2, panel of 370 protein kinases (Homo sapiens, UniProt P23458)", "T2 construct": "purchased Reaction Biology Corporation (assay service)", "T2 sequence (P23458 whole entry)": "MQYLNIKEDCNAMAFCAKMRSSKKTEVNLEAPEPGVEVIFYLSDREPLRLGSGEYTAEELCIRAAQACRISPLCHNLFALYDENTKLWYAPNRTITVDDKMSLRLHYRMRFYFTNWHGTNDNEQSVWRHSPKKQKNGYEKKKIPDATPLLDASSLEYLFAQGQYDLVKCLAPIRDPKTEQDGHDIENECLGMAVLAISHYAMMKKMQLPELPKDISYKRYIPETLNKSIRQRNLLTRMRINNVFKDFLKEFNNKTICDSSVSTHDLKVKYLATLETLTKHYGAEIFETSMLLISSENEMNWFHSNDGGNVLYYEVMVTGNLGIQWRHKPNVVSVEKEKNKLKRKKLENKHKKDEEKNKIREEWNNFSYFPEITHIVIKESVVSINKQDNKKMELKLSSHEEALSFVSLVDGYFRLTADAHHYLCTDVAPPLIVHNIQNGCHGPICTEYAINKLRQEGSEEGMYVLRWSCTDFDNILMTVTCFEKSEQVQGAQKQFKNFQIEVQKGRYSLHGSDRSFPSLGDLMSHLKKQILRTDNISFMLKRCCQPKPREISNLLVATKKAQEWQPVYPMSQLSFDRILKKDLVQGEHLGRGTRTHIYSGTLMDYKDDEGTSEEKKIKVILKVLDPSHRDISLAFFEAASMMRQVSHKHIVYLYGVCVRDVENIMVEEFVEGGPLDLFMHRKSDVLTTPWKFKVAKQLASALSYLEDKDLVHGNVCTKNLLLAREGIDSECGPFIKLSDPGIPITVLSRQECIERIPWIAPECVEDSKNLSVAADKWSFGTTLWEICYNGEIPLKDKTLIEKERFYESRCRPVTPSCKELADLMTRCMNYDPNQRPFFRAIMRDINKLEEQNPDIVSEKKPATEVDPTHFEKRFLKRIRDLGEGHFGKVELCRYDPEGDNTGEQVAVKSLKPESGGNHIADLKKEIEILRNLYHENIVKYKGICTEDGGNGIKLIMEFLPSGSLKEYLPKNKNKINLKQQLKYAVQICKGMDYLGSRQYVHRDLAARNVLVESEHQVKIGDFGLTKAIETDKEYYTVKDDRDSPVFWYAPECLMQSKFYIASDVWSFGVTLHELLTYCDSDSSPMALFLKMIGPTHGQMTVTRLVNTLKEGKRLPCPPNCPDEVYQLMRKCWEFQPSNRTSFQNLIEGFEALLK", "test": "Kinase inhibitor specificity profiling (Reaction Biology Corporation)", "format": "biochemical", "set-up": "% Enzyme Activity (relative to DMSO controls): concentration or dose not given beside the values", "conditions": "kinase JAK1"}, "[2]": {"target": "T3, panel of 370 protein kinases (Homo sapiens, UniProt Q15746)", "T3 construct": "purchased Reaction Biology Corporation (assay service)", "test": "Kinase inhibitor specificity profiling (Reaction Biology Corporation)", "format": "biochemical", "set-up": "% Enzyme Activity (relative to DMSO controls): concentration or dose not given beside the values", "conditions": "2 h, kinase MLCK/MYLK; read-out: % Enzyme Activity (relative to DMSO controls)"}, "[3]": {"target": "T4, panel of 370 protein kinases (Homo sapiens, UniProt P78368)", "T4 construct": "purchased Reaction Biology Corporation (assay service)", "T4 sequence (P78368 whole entry)": "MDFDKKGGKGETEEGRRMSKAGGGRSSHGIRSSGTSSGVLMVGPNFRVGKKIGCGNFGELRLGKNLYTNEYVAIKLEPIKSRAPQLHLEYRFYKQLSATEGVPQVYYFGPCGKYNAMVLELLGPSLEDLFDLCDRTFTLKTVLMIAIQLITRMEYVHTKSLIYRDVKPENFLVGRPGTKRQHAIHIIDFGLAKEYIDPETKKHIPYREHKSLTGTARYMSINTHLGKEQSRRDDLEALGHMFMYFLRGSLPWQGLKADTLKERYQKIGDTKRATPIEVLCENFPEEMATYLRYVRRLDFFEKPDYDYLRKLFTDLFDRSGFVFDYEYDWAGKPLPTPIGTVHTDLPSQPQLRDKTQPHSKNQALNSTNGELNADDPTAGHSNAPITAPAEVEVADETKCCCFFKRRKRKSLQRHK", "test": "Kinase inhibitor specificity profiling (Reaction Biology Corporation)", "format": "biochemical", "set-up": "% Enzyme Activity (relative to DMSO controls): concentration or dose not given beside the values", "conditions": "kinase CK1g2"}, "[4]": {"target": "T5, panel of 370 protein kinases (Homo sapiens, UniProt Q9H4A3)", "T5 construct": "purchased Reaction Biology Corporation (assay service)", "test": "Kinase inhibitor specificity profiling (Reaction Biology Corporation)", "format": "biochemical", "set-up": "% Enzyme Activity (relative to DMSO controls): concentration or dose not given beside the values", "conditions": "kinase WNK1"}, "[5]": {"target": "T6, panel of 370 protein kinases (Homo sapiens, UniProt Q96RG2)", "T6 construct": "purchased Reaction Biology Corporation (assay service)", "test": "Kinase inhibitor specificity profiling (Reaction Biology Corporation)", "format": "biochemical", "set-up": "% Enzyme Activity (relative to DMSO controls): concentration or dose not given beside the values", "conditions": "2 h, kinase PASK; read-out: % Enzyme Activity (relative to DMSO controls)"}, "[6]": {"target": "T7, panel of 370 protein kinases (Homo sapiens, UniProt P51451)", "T7 construct": "purchased Reaction Biology Corporation (assay service)", "T7 sequence (P51451 whole entry)": "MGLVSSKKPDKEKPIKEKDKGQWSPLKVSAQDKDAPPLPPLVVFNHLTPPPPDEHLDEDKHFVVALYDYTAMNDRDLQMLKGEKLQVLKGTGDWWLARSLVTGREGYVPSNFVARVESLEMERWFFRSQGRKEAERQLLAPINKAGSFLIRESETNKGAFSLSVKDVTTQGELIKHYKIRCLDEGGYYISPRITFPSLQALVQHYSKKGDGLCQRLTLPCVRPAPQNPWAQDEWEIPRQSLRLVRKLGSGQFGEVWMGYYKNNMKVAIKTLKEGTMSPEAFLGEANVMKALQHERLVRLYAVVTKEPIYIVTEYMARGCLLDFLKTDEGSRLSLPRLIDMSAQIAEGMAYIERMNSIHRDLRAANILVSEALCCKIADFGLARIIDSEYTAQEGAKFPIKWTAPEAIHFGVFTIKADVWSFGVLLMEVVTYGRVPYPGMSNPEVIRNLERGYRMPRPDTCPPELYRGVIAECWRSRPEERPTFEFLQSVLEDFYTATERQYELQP", "test": "Kinase inhibitor specificity profiling (Reaction Biology Corporation)", "format": "biochemical", "set-up": "% Enzyme Activity (relative to DMSO controls): concentration or dose not given beside the values", "conditions": "2 h, kinase BLK; read-out: % Enzyme Activity (relative to DMSO controls)"}, "[7]": {"target": "T8, panel of 370 protein kinases (Homo sapiens, UniProt Q5VT25)", "T8 construct": "purchased Reaction Biology Corporation (assay service)", "test": "Kinase inhibitor specificity profiling (Reaction Biology Corporation)", "format": "biochemical", "set-up": "% Enzyme Activity (relative to DMSO controls): concentration or dose not given beside the values", "conditions": "2 h, kinase MRCKa/CDC42BPA; read-out: % Enzyme Activity (relative to DMSO controls)"}, "[8]": {"target": "T9, panel of 370 protein kinases (Homo sapiens, UniProt Q9NWZ3)", "T9 construct": "purchased Reaction Biology Corporation (assay service)", "T9 sequence (Q9NWZ3 whole entry)": "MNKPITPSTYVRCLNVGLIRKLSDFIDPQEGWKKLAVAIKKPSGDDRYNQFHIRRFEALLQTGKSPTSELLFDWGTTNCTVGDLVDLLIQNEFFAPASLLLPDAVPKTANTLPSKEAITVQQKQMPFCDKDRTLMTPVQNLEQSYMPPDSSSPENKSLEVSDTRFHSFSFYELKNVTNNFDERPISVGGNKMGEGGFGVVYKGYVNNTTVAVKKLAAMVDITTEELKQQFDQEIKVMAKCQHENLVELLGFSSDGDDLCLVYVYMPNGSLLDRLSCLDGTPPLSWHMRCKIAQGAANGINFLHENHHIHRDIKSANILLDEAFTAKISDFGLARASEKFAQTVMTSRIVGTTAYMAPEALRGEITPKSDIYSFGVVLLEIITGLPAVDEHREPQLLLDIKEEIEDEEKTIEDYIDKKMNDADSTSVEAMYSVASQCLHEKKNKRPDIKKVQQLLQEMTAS", "test": "Kinase inhibitor specificity profiling (Reaction Biology Corporation)", "format": "biochemical", "set-up": "% Enzyme Activity (relative to DMSO controls): concentration or dose not given beside the values", "conditions": "kinase IRAK4"}, "[9]": {"target": "T10, panel of 370 protein kinases (Homo sapiens, UniProt P54760)", "T10 construct": "purchased Reaction Biology Corporation (assay service)", "test": "Kinase inhibitor specificity profiling (Reaction Biology Corporation)", "format": "biochemical", "set-up": "% Enzyme Activity (relative to DMSO controls): concentration or dose not given beside the values", "conditions": "2 h, kinase EPHB4; read-out: % Enzyme Activity (relative to DMSO controls)"}, "[10]": {"target": "T11, panel of 370 protein kinases (Homo sapiens, UniProt Q96L34)", "T11 construct": "purchased Reaction Biology Corporation (assay service)", "T11 sequence (Q96L34 whole entry)": "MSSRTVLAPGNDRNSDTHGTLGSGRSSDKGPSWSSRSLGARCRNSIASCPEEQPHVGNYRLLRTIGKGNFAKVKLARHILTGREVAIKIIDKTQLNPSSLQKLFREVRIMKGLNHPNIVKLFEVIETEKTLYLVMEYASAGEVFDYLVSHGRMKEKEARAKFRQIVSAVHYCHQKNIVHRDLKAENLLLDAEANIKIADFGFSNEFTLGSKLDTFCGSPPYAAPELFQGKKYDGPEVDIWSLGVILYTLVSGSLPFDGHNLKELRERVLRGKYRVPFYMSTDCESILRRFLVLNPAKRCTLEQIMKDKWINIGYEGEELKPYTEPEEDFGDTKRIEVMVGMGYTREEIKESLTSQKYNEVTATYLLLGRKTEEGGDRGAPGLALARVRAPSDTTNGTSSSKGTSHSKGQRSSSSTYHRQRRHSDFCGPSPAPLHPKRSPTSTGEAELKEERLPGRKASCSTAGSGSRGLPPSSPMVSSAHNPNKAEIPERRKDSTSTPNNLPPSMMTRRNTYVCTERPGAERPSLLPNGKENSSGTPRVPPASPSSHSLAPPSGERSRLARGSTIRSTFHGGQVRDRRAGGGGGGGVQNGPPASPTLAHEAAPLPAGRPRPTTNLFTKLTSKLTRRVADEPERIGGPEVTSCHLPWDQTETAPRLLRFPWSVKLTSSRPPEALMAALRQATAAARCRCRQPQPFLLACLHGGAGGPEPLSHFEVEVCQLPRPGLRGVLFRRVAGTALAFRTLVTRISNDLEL", "test": "Kinase inhibitor specificity profiling (Reaction Biology Corporation)", "format": "biochemical", "set-up": "% Enzyme Activity (relative to DMSO controls): concentration or dose not given beside the values", "conditions": "kinase MARK4"}, "[11]": {"target": "T12, panel of 370 protein kinases (Homo sapiens, UniProt Q12852)", "T12 construct": "purchased Reaction Biology Corporation (assay service)", "T12 sequence (Q12852 whole entry)": "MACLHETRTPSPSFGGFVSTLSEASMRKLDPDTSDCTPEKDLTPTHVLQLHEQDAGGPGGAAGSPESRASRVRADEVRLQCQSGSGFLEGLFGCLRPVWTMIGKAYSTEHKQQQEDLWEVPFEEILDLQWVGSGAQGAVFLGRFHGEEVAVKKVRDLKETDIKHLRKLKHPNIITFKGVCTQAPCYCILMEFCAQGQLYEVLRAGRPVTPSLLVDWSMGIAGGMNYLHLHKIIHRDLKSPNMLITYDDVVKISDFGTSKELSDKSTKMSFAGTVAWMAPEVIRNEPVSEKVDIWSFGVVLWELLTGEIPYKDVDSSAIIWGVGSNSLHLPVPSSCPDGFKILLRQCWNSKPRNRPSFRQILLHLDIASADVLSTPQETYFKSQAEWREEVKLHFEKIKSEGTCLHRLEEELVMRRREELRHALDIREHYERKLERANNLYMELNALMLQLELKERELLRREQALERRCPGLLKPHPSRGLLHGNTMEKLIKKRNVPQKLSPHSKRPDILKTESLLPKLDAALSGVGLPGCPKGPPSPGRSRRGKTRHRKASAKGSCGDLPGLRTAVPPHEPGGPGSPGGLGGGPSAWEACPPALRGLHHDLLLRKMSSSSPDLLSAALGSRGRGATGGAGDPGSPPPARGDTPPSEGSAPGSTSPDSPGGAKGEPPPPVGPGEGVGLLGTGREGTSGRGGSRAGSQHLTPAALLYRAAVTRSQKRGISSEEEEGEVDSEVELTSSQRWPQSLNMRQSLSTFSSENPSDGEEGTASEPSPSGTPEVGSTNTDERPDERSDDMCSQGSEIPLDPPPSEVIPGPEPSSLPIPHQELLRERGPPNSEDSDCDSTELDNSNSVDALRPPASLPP", "test": "Kinase inhibitor specificity profiling (Reaction Biology Corporation)", "format": "biochemical", "set-up": "% Enzyme Activity (relative to DMSO controls): concentration or dose not given beside the values", "conditions": "kinase DLK/MAP3K12"}, "[12]": {"target": "T13, panel of 370 protein kinases (Homo sapiens, UniProt P25098)", "T13 construct": "purchased Reaction Biology Corporation (assay service)", "test": "Kinase inhibitor specificity profiling (Reaction Biology Corporation)", "format": "biochemical", "set-up": "% Enzyme Activity (relative to DMSO controls): concentration or dose not given beside the values", "conditions": "2 h, kinase GRK2; read-out: % Enzyme Activity (relative to DMSO controls)"}, "[13]": {"target": "T14, panel of 370 protein kinases (Homo sapiens, UniProt Q13233)", "T14 construct": "purchased Reaction Biology Corporation (assay service)", "test": "Kinase inhibitor specificity profiling (Reaction Biology Corporation)", "format": "biochemical", "set-up": "% Enzyme Activity (relative to DMSO controls): concentration or dose not given beside the values", "conditions": "2 h, kinase MEKK1; read-out: % Enzyme Activity (relative to DMSO controls)"}, "[14]": {"target": "T15, panel of 370 protein kinases (Homo sapiens, UniProt P19784)", "T15 construct": "purchased Reaction Biology Corporation (assay service)", "T15 sequence (P19784 whole entry)": "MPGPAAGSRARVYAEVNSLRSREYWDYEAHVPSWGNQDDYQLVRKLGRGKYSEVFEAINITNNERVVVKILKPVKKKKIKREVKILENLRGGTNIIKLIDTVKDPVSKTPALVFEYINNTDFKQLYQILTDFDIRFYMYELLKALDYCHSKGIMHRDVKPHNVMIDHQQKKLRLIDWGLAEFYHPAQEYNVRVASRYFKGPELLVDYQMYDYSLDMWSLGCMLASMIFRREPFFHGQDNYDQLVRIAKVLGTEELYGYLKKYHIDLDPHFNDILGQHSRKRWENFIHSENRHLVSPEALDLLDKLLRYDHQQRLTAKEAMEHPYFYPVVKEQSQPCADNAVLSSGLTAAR", "test": "Kinase inhibitor specificity profiling (Reaction Biology Corporation)", "format": "biochemical", "set-up": "% Enzyme Activity (relative to DMSO controls): concentration or dose not given beside the values", "conditions": "2 h, kinase CK2a2; read-out: % Enzyme Activity (relative to DMSO controls)"}, "[15]": {"target": "T16, panel of 370 protein kinases (Homo sapiens, UniProt Q15349)", "T16 construct": "purchased Reaction Biology Corporation (assay service)", "test": "Kinase inhibitor specificity profiling (Reaction Biology Corporation)", "format": "biochemical", "set-up": "% Enzyme Activity (relative to DMSO controls): concentration or dose not given beside the values", "conditions": "2 h, kinase RSK3; read-out: % Enzyme Activity (relative to DMSO controls)"}, "[16]": {"target": "T17, panel of 370 protein kinases (Homo sapiens, UniProt Q9Y243)", "T17 construct": "purchased Reaction Biology Corporation (assay service)", "test": "Kinase inhibitor specificity profiling (Reaction Biology Corporation)", "format": "biochemical", "set-up": "% Enzyme Activity (relative to DMSO controls): concentration or dose not given beside the values", "conditions": "2 h, kinase AKT3; read-out: % Enzyme Activity (relative to DMSO controls)"}, "[17]": {"target": "T18, panel of 370 protein kinases (Homo sapiens, UniProt O14733)", "T18 construct": "purchased Reaction Biology Corporation (assay service)", "T18 sequence (O14733 whole entry)": "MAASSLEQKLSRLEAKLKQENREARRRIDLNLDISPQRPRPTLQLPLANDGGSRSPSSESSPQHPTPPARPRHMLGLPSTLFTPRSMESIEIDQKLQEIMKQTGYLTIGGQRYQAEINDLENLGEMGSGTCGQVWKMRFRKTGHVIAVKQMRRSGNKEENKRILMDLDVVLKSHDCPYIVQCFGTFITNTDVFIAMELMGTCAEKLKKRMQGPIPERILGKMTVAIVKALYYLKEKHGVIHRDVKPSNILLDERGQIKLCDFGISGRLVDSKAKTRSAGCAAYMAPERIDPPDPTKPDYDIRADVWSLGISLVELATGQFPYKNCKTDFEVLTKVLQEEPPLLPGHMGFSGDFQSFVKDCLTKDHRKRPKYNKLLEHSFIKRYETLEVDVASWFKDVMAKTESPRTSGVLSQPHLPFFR", "test": "Kinase inhibitor specificity profiling (Reaction Biology Corporation)", "format": "biochemical", "set-up": "% Enzyme Activity (relative to DMSO controls): concentration or dose not given beside the values", "conditions": "kinase MKK7"}}, "note": "Where “and” joins values, the source holds several entries; their conditions need not be identical. Equal values may be shown once."}
{"smiles": "CCN1CCN(C(=O)c2ccc(Nc3ncc(F)c(-c4ccc5nc(N(C)C)sc5c4)n3)nc2)CC1", "note": "[YK-2-69]", "values": [{"measurement": "phosphorylation of 4E-BP1", "setting": "p-4E-BP1 (Thr37/46)", "result": "inhibited the phosphorylation of 4E-BP1 in a dose-dependent manner"}, {"measurement": "Kd", "setting": "DYRK2 protein", "result": 92, "unit": "nM"}, {"measurement": "Fnorm", "setting": "DYRK2 protein; Ligand Concentration 1.52588e-9 M", "result": "967.581 ‰ and 966.546 ‰ and 966.864 ‰"}, {"measurement": "Fnorm", "setting": "DYRK2 protein; Ligand Concentration 3.05176e-9 M", "result": "966.58 ‰ and 965.007 ‰ and 967.223 ‰"}, {"measurement": "Fnorm", "setting": "DYRK2 protein; Ligand Concentration 6.10352e-9 M", "result": "966.992 ‰ and 966.91 ‰ and 966.101 ‰"}, {"measurement": "Fnorm", "setting": "DYRK2 protein; Ligand Concentration 1.2207e-8 M", "result": "967.371 ‰ and 966.328 ‰ and 967.725 ‰"}, {"measurement": "Fnorm", "setting": "DYRK2 protein; Ligand Concentration 2.44141e-8 M", "result": "967.449 ‰ and 966.053 ‰ and 966.951 ‰"}, {"measurement": "Fnorm", "setting": "DYRK2 protein; Ligand Concentration 4.88281e-8 M", "result": "966.087 ‰ and 966.251 ‰ and 967.971 ‰"}, {"measurement": "Fnorm", "setting": "DYRK2 protein; Ligand Concentration 9.76563e-8 M", "result": "964.723 ‰ and 963.783 ‰ and 964.77 ‰"}, {"measurement": "Fnorm", "setting": "DYRK2 protein; Ligand Concentration 1.95313e-7 M", "result": "965.362 ‰ and 964.006 ‰ and 962.948 ‰"}, {"measurement": "Fnorm", "setting": "DYRK2 protein; Ligand Concentration 3.90625e-7 M", "result": "961.623 ‰ and 962.98 ‰ and 964.971 ‰"}, {"measurement": "Fnorm", "setting": "DYRK2 protein; Ligand Concentration 7.8125e-7 M", "result": "963.524 ‰ and 964.437 ‰ and 962.941 ‰"}, {"measurement": "Fnorm", "setting": "DYRK2 protein; Ligand Concentration 1.5625e-6 M", "result": "963.3 ‰ and 963.031 ‰ and 962.056 ‰"}, {"measurement": "Fnorm", "setting": "DYRK2 protein; Ligand Concentration 3.125e-6 M", "result": "962.439 ‰ and 962.002 ‰ and 962.785 ‰"}, {"measurement": "Fnorm", "setting": "DYRK2 protein; Ligand Concentration 6.25e-6 M", "result": "962.791 ‰ and 963.606 ‰ and 963.319 ‰"}, {"measurement": "Fnorm", "setting": "DYRK2 protein; Ligand Concentration 1.25e-5 M", "result": "961.109 ‰ and 965.797 ‰ and 962.38 ‰"}, {"measurement": "Fnorm", "setting": "DYRK2 protein; Ligand Concentration 2.5e-5 M", "result": "962.063 ‰ and 963.029 ‰ and 959.958 ‰"}, {"measurement": "Fnorm", "setting": "DYRK2 protein; Ligand Concentration 5e-5 M", "result": "962.013 ‰ and 961.244 ‰ and 962.047 ‰"}, {"measurement": "% Enzyme Activity (relative to DMSO controls)", "setting": "[1]", "result": "103.96% and 100.40%"}, {"measurement": "remaining activity at 1 µM", "setting": "[2]", "result": 97.5, "unit": "%"}, {"measurement": "% Enzyme Activity (relative to DMSO controls)", "setting": "[3]", "result": "92.19% and 91.13%"}, {"measurement": "% Enzyme Activity (relative to DMSO controls)", "setting": "[4]", "result": "116.91% and 108.19%"}, {"measurement": "remaining activity at 1 µM", "setting": "[5]", "result": 98.3, "unit": "%"}, {"measurement": "remaining activity at 1 µM", "setting": "[6]", "result": 100, "unit": "%"}, {"measurement": "remaining activity at 1 µM", "setting": "[7]", "result": 111, "unit": "%"}, {"measurement": "% Enzyme Activity (relative to DMSO controls)", "setting": "[8]", "result": "99.99% and 96.94%"}, {"measurement": "remaining activity at 1 µM", "setting": "[9]", "result": 106, "unit": "%"}, {"measurement": "% Enzyme Activity (relative to DMSO controls)", "setting": "[10]", "result": "79.55% and 79.20%"}, {"measurement": "% Enzyme Activity (relative to DMSO controls)", "setting": "[11]", "result": "98.52% and 93.92%"}, {"measurement": "remaining activity at 1 µM", "setting": "[12]", "result": 112, "unit": "%"}, {"measurement": "remaining activity at 1 µM", "setting": "[13]", "result": 99.7, "unit": "%"}, {"measurement": "remaining activity at 1 µM", "setting": "[14]", "result": 51.4, "unit": "%"}, {"measurement": "remaining activity at 1 µM", "setting": "[15]", "result": 104, "unit": "%"}, {"measurement": "remaining activity at 1 µM", "setting": "[16]", "result": 88.2, "unit": "%"}, {"measurement": "% Enzyme Activity (relative to DMSO controls)", "setting": "[17]", "result": "97.65% and 97.50%"}]}
